Measured values taken from patent publication US7511041B2, “Fused azole-pyrimidine derivatives” (Bayer Pharmaceuticals Corporation, priority 2002, dated 2009).

Key:
[1] = target: T1, Recombinant human PI3Kγ (full length human PI3K p110γ) (Homo sapiens, UniProt P48736); experiment: Kinase assay of PI3Kγ (solid-phase lipid kinase assay); type: biochemical; conditions: in vitro PI3K-γ inhibitory activity, class symbols; read-out: in vitro PI3K-gamma
T1 construct: full length human PI3K p110γ fused with a His6-tag at the C-terminus; His6 (C); purchased ALEXIS BIOCHEMICALS #201-055-C010; host or cells: S. frugiperda 9 insect cells
T1 sequence (P48736 whole entry, the tested form may be a part): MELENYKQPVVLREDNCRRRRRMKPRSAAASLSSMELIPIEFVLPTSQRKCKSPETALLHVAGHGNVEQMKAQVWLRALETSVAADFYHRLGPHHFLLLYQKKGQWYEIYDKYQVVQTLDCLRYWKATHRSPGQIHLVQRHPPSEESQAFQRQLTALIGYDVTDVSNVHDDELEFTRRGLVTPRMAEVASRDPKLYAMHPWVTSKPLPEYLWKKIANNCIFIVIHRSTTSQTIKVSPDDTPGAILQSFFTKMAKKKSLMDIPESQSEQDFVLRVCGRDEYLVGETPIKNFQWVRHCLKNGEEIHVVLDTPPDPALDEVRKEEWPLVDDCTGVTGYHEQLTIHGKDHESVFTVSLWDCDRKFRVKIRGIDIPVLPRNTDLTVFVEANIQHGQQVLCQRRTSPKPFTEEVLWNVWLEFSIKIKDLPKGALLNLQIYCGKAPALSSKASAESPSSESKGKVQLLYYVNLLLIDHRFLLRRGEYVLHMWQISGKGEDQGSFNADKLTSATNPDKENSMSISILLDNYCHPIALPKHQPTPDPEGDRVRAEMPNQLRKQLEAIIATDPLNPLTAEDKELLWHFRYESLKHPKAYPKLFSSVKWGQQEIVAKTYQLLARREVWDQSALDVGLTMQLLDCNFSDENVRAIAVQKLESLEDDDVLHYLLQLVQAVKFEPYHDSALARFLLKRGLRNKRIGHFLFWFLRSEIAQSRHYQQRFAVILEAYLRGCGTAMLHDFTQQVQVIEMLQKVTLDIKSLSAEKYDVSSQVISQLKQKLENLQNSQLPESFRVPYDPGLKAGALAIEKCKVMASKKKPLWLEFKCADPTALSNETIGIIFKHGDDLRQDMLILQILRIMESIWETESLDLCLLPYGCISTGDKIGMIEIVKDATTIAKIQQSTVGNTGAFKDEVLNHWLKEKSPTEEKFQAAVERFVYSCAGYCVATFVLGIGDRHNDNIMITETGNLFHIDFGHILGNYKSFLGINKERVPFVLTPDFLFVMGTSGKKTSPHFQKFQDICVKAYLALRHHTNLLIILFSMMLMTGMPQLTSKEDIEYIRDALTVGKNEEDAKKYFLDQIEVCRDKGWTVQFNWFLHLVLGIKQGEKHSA

SMILES	melting point	IC50 [1] [nM]
Cl.O=C(NC1=Nc2c(F)cccc2C2=NCCN12)c1cccnc1 [Example 2-100]	288 °C	< 100
O=C(NC1=Nc2c(F)cccc2C2=NCCN12)c1ccc2[nH]cnc2c1 [Example 2-101]	> 300 °C	< 100
Cl.O=C(NC1=Nc2c(Cl)cccc2C2=NCCN12)c1cccnc1 [Example 2-103]	> 280 °C	100 to 500
CC(=O)Nc1ccc(C(=O)NC2=Nc3c(Cl)cccc3C3=NCCN23)cn1 [Example 2-104]	> 280 °C	100 to 500
CC(=O)Nc1ccc(C(=O)NC2=Nc3c(Cl)cccc3C3=NCCN23)cn1.Cl [Example 2-105]	> 280 °C	< 100
Cl.O=C(NC1=Nc2c(Cl)cccc2C2=NCCN12)c1ccc2[nH]cnc2c1 [Example 2-106]	> 280 °C	100 to 500
Cc1cccc2c1N=C(NC(=O)c1cccnc1)N1CCN=C21 [Example 2-107]	244 °C	100 to 500
Cc1cccc2c1N=C(NC(=O)c1ccc3[nH]cnc3c1)N1CCN=C21 [Example 2-109]	> 290 °C	< 100
Cl.O=C(NC1=Nc2c(cccc2C(F)(F)F)C2=NCCN12)c1cccnc1 [Example 2-111]	263 °C	< 100
O=C(NC1=Nc2c(cccc2C(F)(F)F)C2=NCCN12)c1ccc2[nH]cnc2c1 [Example 2-112]	286 °C	< 100
COc1cccc2c1N=C(NC(=O)c1cccnc1)N1CCN=C21 [Example 2-114]	110 °C	< 100
COc1cccc2c1N=C(NC(=O)c1cccnc1C)N1CCN=C21 [Example 2-116]	204 to 205 °C	100 to 500
COc1cccc2c1N=C(NC(=O)c1cccnc1C)N1CCN=C21.Cl [Example 2-117]	251 °C (dec.)	< 100
COc1cccc2c1N=C(NC(=O)c1cccnc1Cl)N1CCN=C21 [Example 2-118]	185 °C (dec.)	< 100
COc1cccc2c1N=C(NC(=O)c1cnccc1C)N1CCN=C21.Cl [Example 2-120]	220 °C (dec.)	< 100
COc1cccc2c1N=C(NC(=O)c1cnccc1C(F)(F)F)N1CCN=C21 [Example 2-121]	144 to 145 °C	100 to 500
COc1cccc2c1N=C(NC(=O)c1cncc(O)c1)N1CCN=C21.Cl [Example 2-122]	285 °C (dec.)	< 100
COc1cccc2c1N=C(NC(=O)c1ccc(N)nc1)N1CCN=C21.Cl [Example 2-123]	296 °C	< 100
COc1cccc2c1N=C(NC(=O)c1ccc3[nH]cnc3c1)N1CCN=C21 [Example 2-124]	287 °C	< 100
COc1cccc2c1N=C(NC(=O)c1cc3cccnc3nc1C)N1CCN=C21 [Example 2-126]	183 to 184 °C	< 100
COc1cccc2c1N=C(NC(=O)c1cc3cccnc3nc1C(F)(F)F)N1CCN=C21 [Example 2-128]	214 °C (dec.)	< 100
O=C(NC1=Nc2ccccc2C2=NCCN12)c1cccnc1.O=C(O)C(F)(F)F [Example 2-130]	237 to 239 °C	< 100

SMILES	melting point	IC50 [1] [nM]
Cc1ncccc1C(=O)NC1=Nc2ccccc2C2=NCCN12 [Example 2-131]	193 to 194 °C	100 to 500
Nc1ncccc1C(=O)NC1=Nc2ccccc2C2=NCCN12 [Example 2-133]	215 °C (dec.)	100 to 500
O=C(NC1=Nc2ccccc2C2=NCCN12)c1cccnc1Cl [Example 2-134]	198 to 199 °C	< 100
Cl.O=C(NC1=Nc2ccccc2C2=NCCN12)c1cccnc1Cl [Example 2-135]	340 °C (dec.)	100 to 500
Cc1ccncc1C(=O)NC1=Nc2ccccc2C2=NCCN12 [Example 2-136]	194 to 195 °C	100 to 500
O=C(NC1=Nc2ccccc2C2=NCCN12)c1cncc(O)c1 [Example 2-138]	273 °C (dec.)	< 100
COc1cncc(C(=O)NC2=Nc3ccccc3C3=NCCN23)c1 [Example 2-140]	219 °C (dec.)	100 to 500
O=C(O)c1cncc(C(=O)NC2=Nc3ccccc3C3=NCCN23)c1 [Example 2-142]	358 to 359 °C	100 to 500
CS(=O)(=O)Nc1cncc(C(=O)NC2=Nc3ccccc3C3=NCCN23)c1 [Example 2-143]	265 to 269 °C	< 100
Nc1cncc(C(=O)NC2=Nc3ccccc3C3=NCCN23)c1 [Example 2-144]	263 to 266 °C	< 100
Nc1cncc(C(=O)NC2=Nc3ccccc3C3=NCCN23)c1.O=C(O)C(F)(F)F [Example 2-145]	220 °C (dec.)	100 to 500
CN(C)/C=N/c1cncc(C(=O)NC2=Nc3ccccc3C3=NCCN23)c1 [Example 2-146]	219 °C (dec.)	100 to 500
Cc1ccc(C(=O)NC2=Nc3ccccc3C3=NCCN23)cn1 [Example 2-147]	195 to 196 °C	< 100
Nc1ccc(C(=O)NC2=Nc3ccccc3C3=NCCN23)cn1 [Example 2-149]	> 300 °C	< 100
CC(=O)Nc1ccc(C(=O)NC2=Nc3ccccc3C3=NCCN23)cn1 [Example 2-151]	320 °C (dec.)	< 100
CNc1ccc(C(=O)NC2=Nc3ccccc3C3=NCCN23)cn1 [Example 2-153]	196 to 197 °C	100 to 500
Cl.O=C(NC1=Nc2ccccc2C2=NCCN12)c1ccc(Cl)nc1 [Example 2-155]	324 °C (dec.)	100 to 500
Cc1ccc(C(=O)NC2=Nc3ccccc3C3=NCCN23)c(Cl)n1.Cl [Example 2-156]	287 °C (dec.)	100 to 500
Cc1nc(N)ccc1C(=O)NC1=Nc2ccccc2C2=NCCN12 [Example 2-157]	146 to 148 °C	100 to 500
Cc1cc(C(=O)NC2=Nc3ccccc3C3=NCCN23)cnc1N [Example 2-159]	246 to 247 °C	100 to 500
Cc1c(C(=O)NC2=Nc3ccccc3C3=NCCN23)cnc(N)c1C.Cl [Example 2-161]	298 °C (dec.)	100 to 500
Nc1cccc(C(=O)NC2=Nc3ccccc3C3=NCCN23)c1.O=C(O)C(F)(F)F [Example 2-162]	191 °C (dec.)	100 to 500

SMILES	melting point	IC50 [1] [nM]
Nc1ccc(C(=O)NC2=Nc3ccccc3C3=NCCN23)cc1.O=C(O)C(F)(F)F [Example 2-163]	232 °C (dec.)	100 to 500
Cl.Cn1cnc2cc(C(=O)NC3=Nc4ccccc4C4=NCCN34)ccc21 [Example 2-167]	333 °C (dec.)	100 to 500
Cl.O=C(NC1=Nc2ccccc2C2=NCCN12)c1cccc2[nH]ccc12 [Example 2-169]	295 °C (dec.)	100 to 500
Cc1nc2ccccn2c1C(=O)NC1=Nc2ccccc2C2=NCCN12 [Example 2-170]	277 to 279 °C	100 to 500
O=C(NC1=Nc2ccccc2C2=NCCN12)c1cnc2[nH]cnc2c1 [Example 2-172]	> 300 °C	< 100
Cc1nc2ncccc2cc1C(=O)NC1=Nc2ccccc2C2=NCCN12 [Example 2-174]	296 °C (dec.)	100 to 500
Cl.O=C(NC1=Nc2ccccc2C2=NCCN12)c1cc2cccnc2nc1C(F)(F)F [Example 2-176]	248 to 249 °C	100 to 500
O=C(NC1=Nc2ccccc2C2=NCCN12)c1ccc2cccnc2n1 [Example 2-177]	275 °C (dec.)	100 to 500
O=C(NC1=Nc2ccccc2C2=NCCN12)c1cccs1 [Example 2-178]	187 to 188 °C	100 to 500
Cl.O=C(NC1=Nc2ccccc2C2=NCCN12)c1cccs1 [Example 2-179]	310 °C (dec.)	< 100
O=C(NC1=Nc2ccccc2C2=NCCN12)c1sccc1Cl [Example 2-180]	198 to 199 °C	100 to 500
Cc1ccsc1C(=O)NC1=Nc2ccccc2C2=NCCN12.Cl [Example 2-182]	> 250 °C	100 to 500
O=C(NC1=Nc2ccccc2C2=NCCN12)c1ccsc1 [Example 2-183]	167 °C (dec.)	100 to 500
O=C(NC1=Nc2ccccc2C2=NCCN12)c1ccoc1 [Example 2-185]	217 to 218 °C	100 to 500
Cc1nocc1C(=O)NC1=Nc2ccccc2C2=NCCN12.Cl [Example 2-186]	285 °C (dec.)	100 to 500
Cc1noc(C)c1C(=O)NC1=Nc2ccccc2C2=NCCN12.Cl [Example 2-187]	280 to 281 °C	100 to 500
Cl.O=C(NC1=Nc2ccccc2C2=NCCN12)c1nccs1 [Example 2-188]	306 °C (dec.)	100 to 500
Cc1nc(C)c(C(=O)NC2=Nc3ccccc3C3=NCCN23)s1 [Example 2-189]	243 °C (dec.)	100 to 500
Cc1nc(C)c(C(=O)NC2=Nc3ccccc3C3=NCCN23)s1.Cl [Example 2-190]	289 to 290 °C	< 100
CCn1nc(C)cc1C(=O)NC1=Nc2ccccc2C2=NCCN12 [Example 2-191]	207 to 208 °C	100 to 500
O=C(NC1=Nc2ccccc2C2=NCCN12)c1c[nH]cn1 [Example 2-193]	265 °C (dec.)	100 to 500
Cl.O=C(NC1=Nc2cc(O)ccc2C2=NCCN12)c1cccnc1 [Example 2-195]	270 to 274 °C (dec.)	100 to 500
